Measured values taken from patent publication US6087493A, “Porphyrin compounds as telomerase inhibitors” (Regents of the University of Texas System, priority 1998, dated 2000).
Where two headings read alike, the source gives them in different places.

How the values were obtained:
MDA-231 = test: Cytotoxicity (MTT) MDA-231; format: cell-based, human; conditions: Homo sapiens, MDA-MB-231; MDA-231 (breast), 4-7 days; read-out: IC 50 cytotoxicity
Method: (§1) The cells were cultured in the presence of the porphyrins incubator for 4-7 days and then treated with 3-(4,5-dimethylthiazol-2-yl)-2,5-diphenyl-tetrazolium bromide (MTT). Formazan concentration was quantitated by absorbance at 570 nm.

Raji = test: Cytotoxicity (MTT) Raji; format: cell-based, human; conditions: Homo sapiens; Raji (lymphoma), 4-7 days; read-out: IC 50 cytotoxicity
Method: as §1

HeLa = test: cells; format: cell-based, human; conditions: Homo sapiens; HeLa, MTT (n = 3 ± SEM); read-out: Cytotoxicity
[1] = test system: MCF7 human breast carcinoma cells (telomerase activity); test: Telomerase activity in intact MCF7 cells cultured with porphyrin; format: cell-based; conditions: 1, 10 and 100 μM, days 4, 8 and 15
Method: To determine the long-term effects of TMPyP4 on whole cells, MCF7 breast carcinoma cells were cultured in the continuous presence of 1, 10, and 100 μM TMPyP4. The porphyrin solution was freshly added to the medium from the concentrated stock at each passage of the cells (every 3-4 days). On days 4, 8, and 15, the cells were lysed and the telomerase activity was measured in the extracts.
Breast cancer cells MCF-7m, BT20, HS578t and normal HS578Bst cells were grown in culture in T75 flasks (10^6 cells/flask). […] The cells were harvested and freeze-thawed and the extracts used to measure telomerase activity using the Dynabeads method.

[2] = test system: telomere length in MCF7 cells; test: Telomere length analysis in MCF7 cells; format: cell-based, human; conditions: 1 and 10 μM, by day 8 (about 6 population doublings)
Method: DNA was extracted from a minimum of 5×10^6 cells by SDS, proteinase K treatment, then purified and quantitated as previously described (Strahl and Blackburn, 1991). Approximately 1 μg of total DNA was digested with Mse I; the digested DNA was size fractionated by agarose gel electrophoresis and Southern blotted. The blots were hybridized with a ^32 P-labeled 0.5 kb PCR™ DNA fragments composed of the telomere repeat d(TTAGGG), which served as a probe for the telomeres. The hybridized probe was detected by autoradiography and each lane on the film was analyzed by phosphoimage analysis (Molecular Dynamics).
Telomeres shorten at an average rate of 65-100 base pairs per cell division (Counter et al., 1992). To observe a significant effect of an agent on telomere length, e.g., shortening the telomeres by >1 kilobase in MCF7 cells (5.7 kbases), a minimum of […] population doubling times will be required.

sea urchin embryos = test system: sea urchin embryos
Method: Lytechinus pictus sea urchins were purchased from Marinus Inc. (Long Beach, Calif.) and maintained at 15° C. in refrigerated aquaria containing Instant Ocean synthetic sea water, following a described procedure [Vafa, 1996 #300]. For polyspermic fertilization, 0.01 vol freshly prepared stock sperm suspension (25 ml ASW containing 2 ml undiluted semen) was added to the eggs suspended for 10 min at 1% concentration in ASW adjusted to pH 9.0 with NH4 OH and stirred at 60 rpm with motor-driven Teflon paddles. Ten min after insemination, the fertilized eggs were allowed to settle, and the supernatant ASW containing sperm was aspirated and replaced with fresh ASW. The embryos were cultured at 18° C. Twenty min after fertilization TMPyP4 or TMPyP4.Pt^II (100 μM final concentration) was added from a concentrated stock in DMSO to 1% embryo suspensions. Equivalent amounts of DMSO (final 0.1%) were added to control egg suspensions. At measured times after insemination, the embryos were pelleted by centrifugation and resuspended in Carnoy's fixative (ethanol:acetic acid, 3:1) for at least 1 hr. After fixation the embryos were pelleted and resuspended successively in: (1) ethanol:acetic acid, 1:1 for 5-15 min: (2) 45% acetic acid for 5-15 min; (3) room temperature 1 N HCl for 1-2 min: (4) 60° C. 1 N HCl for 7-8 min; (5) room temperature 1 N HCl for 1-2 min; (6) Schiffs reagent for 90-120 min; and (7) 45% acetic acid before affixing the embryos to microscope slides. Embryo samples were placed on microscope slides, covered with coverslips, and frozen on a bed of dry ice. After at least 30 min, the coverslips were popped off using a razor blade and the slides were immediately plunged into Coplin jars containing 95% ethanol for 5-10 min. The slides were then transferred to Coplin jars containing 100% ethanol for 3-5 min. After removing the slides and allowing them to air dry, the embryos were mounted with one drop Permount (Fisher) under a coverglass.
The inventors examined whether treatment of the embryos with G-quadroplex interactive agents can cause observable chromosomal abnormalities. A time course of the embryo development was followed in the presence of 10 μM and 100 μM concentrations of TMPyP4 or TMPyP4.Pt^II.

MX-1 mammary carcinoma = conditions: for # CR's: n=20
Method: A MX-1 human breast tumor adjuvant model employed nude mice (Harlan Sprague Dawley, Inc.). The mice were implanted s.c. by trocar with fragments of MX-1 mammary carcinomas harvested from S.C. growing MX-1 tumors in nude mice hosts. When tumors were approximately 5 mm×5 mm in size (about 10 days after inoculation), the animals received cytoxan at 200 mg/kg. After tumors regressed (fifteen days after cytoxan administration), the animals were pair-matched into groups of mice, each of which was eartagged and followed individually throughout the experiment. The i.p. daily administration of TMPyP4 at 10 and 20 mg/kg five times weekly, began the day the animals were pairmatched (Day 1). TMPyP4 20 mg/kg was administered for 47 days. At the 10 mg/kg dose, TMPyP4 was administered continuously to the end of the study.
Mice were weighed twice weekly and tumor measurements were taken by calipers twice weekly, starting on Day 1. These tumor measurements were converted to mg tumor weight by a well-known formula, and from these calculated tumor weights, the termination date for each individual mouse was determined. Mice were euthanized when their tumors reached approximately 2 grams. Time to tumor recurrence and survival were monitored during the study.

C[n+]1ccc(-c2c3nc(c(-c4cc[n+](C)cc4)c4ccc([nH]4)c(-c4cc[n+](C)cc4)c4nc(c(-c5cc[n+](C)cc5)c5ccc2[nH]5)C=C4)C=C3)cc1 [TMPyP4, 5,10,15,20-tetra-(N-methyl-4-pyridyl)porphine]
IC50 (MDA-231): 44 µM | IC50 (Raji): 11.9 µM | IC50 (HeLa): 18.7 ± 3.89 µM | telomerase activity in intact MCF7 cells [1]: clear concentration-dependent loss of telomerase activity | telomerase activity in intact MCF7 cells ([1]; listed as tetra(N-methyl-4-pyridyl)porphyrin): telomerase activity is reduced relative to control cells | effect on telomere shortening [2]: No detectable effects on telomere shortening | differences from controls in embryos (sea urchin embryos; 10 μM, 150 min after fertilization): no definitive differences were seen | condensed chromosome length / chromosomal effects (sea urchin embryos; 100 μM): condensed chromosomes were longer than in the untreated controls | proliferation and mitosis in embryos (sea urchin embryos; in vivo): significantly decreases proliferative rates in the developing embryos and increases the percent of the cell in mitosis | toxicity to embryos (sea urchin embryos; in vivo): generally non-toxic to the embryos | cell number and morphology of embryos (sea urchin embryos; later time points): fewer cells, many very misshapen and variable in size relative to the controls | first signs of ciliary motility (sea urchin embryos; treated embryos): 9 h | # PS Remaining (MX-1 mammary carcinoma; 10 mg/kg): 0 | # Partial Shrinkage (MX-1 mammary carcinoma; 10 mg/kg): 2 | # Recur at 2 g (MX-1 mammary carcinoma; 10 mg/kg): 6 | # Remaining w/Tumors (MX-1 mammary carcinoma; 10 mg/kg): 1 | # of Recur (MX-1 mammary carcinoma; 10 mg/kg): 8 | # of Survivors (MX-1 mammary carcinoma; 10 mg/kg): 11 | # of Toxic Deaths (MX-1 mammary carcinoma; 10 mg/kg): 1 | % CR's (MX-1 mammary carcinoma; 10 mg/kg): 90% | Avg Day of Recur (MX-1 mammary carcinoma; 10 mg/kg): 25 days | MDS (MX-1 mammary carcinoma; 10 mg/kg): 55 | MDS-Partial Shrinkages (MX-1 mammary carcinoma; 10 mg/kg): 36.0 | Mean Tumor Wt. (MX-1 mammary carcinoma; 10 mg/kg): 11.52 mg | # CR's (MX-1 mammary carcinoma; 10 mg/kg i.p. daily five times weekly): 18 | # PS Remaining (MX-1 mammary carcinoma; 20 mg/kg): 0 | # Partial Shrinkage (MX-1 mammary carcinoma; 20 mg/kg): 5 | # Recur at 2 g (MX-1 mammary carcinoma; 20 mg/kg): 8 | # Remaining w/Tumors (MX-1 mammary carcinoma; 20 mg/kg): 0 | # of Recur (MX-1 mammary carcinoma; 20 mg/kg): 9 | # of Survivors (MX-1 mammary carcinoma; 20 mg/kg): 6 | # of Toxic Deaths (MX-1 mammary carcinoma; 20 mg/kg): 1 | % CR's (MX-1 mammary carcinoma; 20 mg/kg): 75% | Avg Day of Recur (MX-1 mammary carcinoma; 20 mg/kg): 19.33 days | MDS (MX-1 mammary carcinoma; 20 mg/kg): 67.4 | MDS-Partial Shrinkages (MX-1 mammary carcinoma; 20 mg/kg): 44.6 | # CR's (MX-1 mammary carcinoma; 20 mg/kg i.p. daily five times weekly): 15
